ChEMBL document CHEMBL1142843, “Synthesis and evaluation of a series of tropane analogues as novel vesicular monoamine transporter-2 ligands” (Bioorg Med Chem Lett, 2005)
pKi: −log10 of the molar value.

Assays:
[1] = biological target: Neuronal acetylcholine receptor alpha4beta2 (Rattus norvegicus); experiment: Inhibition constant against [3H]nicotine binding to alpha4beta2 nicotinic acetylcholine receptor of rat brain membranes
[2] = biological target: Neuronal acetylcholine receptor alpha7 (Rattus norvegicus); experiment: Inhibition constant against [3H]methyllycaconitine binding to alpha7 nicotinic acetylcholine receptor of rat brain membranes
[3] = biological target: T1, Synaptic vesicular amine transporter (Rattus norvegicus, UniProt Q01827); experiment: Inhibition constant against [3H]dihydrotetrabenazine binding to vesicular monoamine transporter-2 of rat synaptic vesicle membranes
[4] = biological target: T1, Synaptic vesicular amine transporter; experiment: Inhibition constant against [3H]nicotine binding to vesicular monoamine transporter-2 of rat brain membranes
[5] = biological target: T1, Synaptic vesicular amine transporter; experiment: Inhibition constant against [3H]methyllycaconitine binding to vesicular monoamine transporter-2 of rat brain membranes

T1 sequence (Q01827 whole entry): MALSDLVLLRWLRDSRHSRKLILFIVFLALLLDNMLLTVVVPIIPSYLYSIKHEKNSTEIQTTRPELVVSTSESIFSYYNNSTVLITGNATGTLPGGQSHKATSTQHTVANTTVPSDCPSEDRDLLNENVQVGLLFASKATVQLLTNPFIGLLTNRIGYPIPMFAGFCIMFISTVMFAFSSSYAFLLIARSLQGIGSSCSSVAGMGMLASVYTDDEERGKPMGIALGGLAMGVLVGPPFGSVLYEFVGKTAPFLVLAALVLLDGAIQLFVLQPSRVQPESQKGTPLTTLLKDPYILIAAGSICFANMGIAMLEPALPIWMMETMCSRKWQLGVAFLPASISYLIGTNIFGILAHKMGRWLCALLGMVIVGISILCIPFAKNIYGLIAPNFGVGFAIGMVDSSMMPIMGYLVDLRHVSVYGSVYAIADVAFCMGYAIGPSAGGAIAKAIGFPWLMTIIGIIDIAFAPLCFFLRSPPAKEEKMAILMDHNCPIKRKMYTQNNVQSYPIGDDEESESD

Compound | pKi [1] | pKi [2] | pKi [3] | pKi [4] | pKi [5]
COc1ccc(C[C@@H]2C[C@H](Cc3ccc(OC)cc3)C3CCC2N3C)cc1 | < 4.00 | < 4.00 | 5.41 |  | 
CN1C2CCC1[C@@H](Cc1ccccc1)C(O)[C@H]2Cc1ccccc1 (stereo in doubt; 7a) | < 4.00 | < 4.00 | < 4.00 |  | 
COc1ccc(CC2=C[C@H](Cc3ccc(OC)cc3)C3CCC2N3C)cc1 (stereo partly drawn) | < 4.00 | < 4.00 | 5.32 |  | 
CN1C2CC=C(Cc3ccccc3)C1CC2 (stereo not drawn) | 5.74 | 4.82 | < 4.00 |  | 
CN1C2CCC1[C@@H](Cc1ccccc1)C[C@H]2Cc1ccccc1 | < 4.00 | < 4.00 | < 4.00 |  | 
CN1C2CCC1[C@@H](Cc1ccc(F)cc1)C[C@H]2Cc1ccc(F)cc1 | < 4.00 | < 4.00 | < 4.00 |  | 
CN1C2CCC1[C@H](Cc1ccccc1)CC2 (stereo partly drawn) | < 5.18 | 4.85 | < 4.00 |  | 
CN1C2CCC1[C@@H](Cc1ccccc1)C(=O)[C@H]2Cc1ccccc1 | < 4.00 | < 4.00 | < 4.00 |  | 
CN1C2CCC1[C@@H](CCCc1ccccc1)C[C@H]2CCCc1ccccc1 | < 4.00 | < 4.00 | 5.40 |  | 
CN1C2CCC1[C@@H](Cc1ccc(F)cc1)C=C2Cc1ccc(F)cc1 (stereo partly drawn) | < 4.00 | < 4.00 | 5.86 |  | 
CN1C2CCC1[C@@H](Cc1ccccc1)C(O)[C@H]2Cc1ccccc1 (stereo in doubt; 7b) |  |  | < 4.00 | < 4.00 | < 4.00
